pKi: −log10 of the molar value.
Columns and labels:
B2 bradykinin receptor = target: T1, B2 bradykinin receptor (Homo sapiens, UniProt P30411); assay: Binding affinity towards human bradykinin B2 receptor (membranes from Cos-7 cells expressing human B2 receptor) using [3H]-BK as radioligand; type: cell membranes
T1 sequence (P30411 whole entry): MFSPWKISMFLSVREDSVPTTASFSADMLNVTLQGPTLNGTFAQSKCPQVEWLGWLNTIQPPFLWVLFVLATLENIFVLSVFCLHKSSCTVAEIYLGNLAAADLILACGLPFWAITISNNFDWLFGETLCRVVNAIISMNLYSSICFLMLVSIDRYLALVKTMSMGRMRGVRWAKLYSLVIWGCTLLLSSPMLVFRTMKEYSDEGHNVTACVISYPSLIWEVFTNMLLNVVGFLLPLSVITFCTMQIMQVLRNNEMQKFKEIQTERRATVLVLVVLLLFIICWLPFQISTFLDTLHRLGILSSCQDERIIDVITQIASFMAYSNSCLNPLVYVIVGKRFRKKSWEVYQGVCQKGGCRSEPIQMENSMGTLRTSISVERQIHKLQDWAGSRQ

[1] = target: T2, B2 bradykinin receptor (Homo sapiens) (UniProt P30411); assay: Binding affinity towards human bradykinin B2 receptor (membranes from Cos-7 cells expressing human B2 receptor) using [3H]BK as radioligand; type: cell membranes; settings: concentration not given here
T2 sequence (whole entry): T1 sequence (P30411 whole entry)

Structure (SMILES)	pKi (B2 bradykinin receptor)	inhibition [1] [%]
N=C(N)NCCCCN1C(=O)C(Cc2ccccc2)N=C(c2ccccc2)c2ccccc21 (centres undefined)	4.67	
N=C(N)Nc1ccc(N2C(=O)C(Cc3ccccc3)N=C(c3ccccc3)c3ccccc32)cc1 (centres undefined)	5.04	
NCCCCN1C(=O)C(Cc2ccccc2)N=C(c2ccccc2)c2ccccc21 (centres undefined)		26
NC(N)=Nc1cccc(CN2C(=O)[C@H](Cc3ccccc3)N=C(c3ccccc3)c3ccccc32)c1	4.80	
Nc1cccc(CN2C(=O)C(Cc3ccccc3)N=C(c3ccccc3)c3ccccc32)c1 (centres undefined)	< 4.00	
O=C(O)CN1C(=O)C(Cc2ccccc2)N=C(c2ccccc2)c2ccccc21 (centres undefined)	< 4.00	
N=C(N)Nc1cccc(CN2C(=O)[C@@H](Cc3ccccc3)N=C(c3ccccc3)c3ccccc32)c1	4.92	
NC(N)=Nc1cccc(CN2C(=O)C(Cc3ccccc3)N=C(c3ccccc3)c3ccccc32)c1 (centres undefined)	5.05	
O=C1Nc2ccccc2C(c2ccccc2)=NC1Cc1ccccc1 (centres undefined)	< 4.00	

From ChEMBL document CHEMBL1131934, “The design of non-peptide human bradykinin B2 receptor antagonists employing the benzodiazepine peptidomimetic scaffold” (Bioorg Med Chem Lett, 1999)
